Data taken from US4868182A, “Enhancement of prazosin” (Merrell Dow Pharmaceuticals Inc., priority 1988, dated 1989).

Assays:
[1] = tested on: spontaneously hypertensive rats; experiment: lowering of systolic blood pressure in spontaneously hypertensive rats; format: in vivo, rat; conditions: SHR, oral, prazosin 0.1 mg/kg, alone or combined, mean ± SE
[2] = biological target: cyclic AMP-phosphodiesterase; experiment: in vitro inhibition of cyclic AMP-phosphodiesterase; format: biochemical; conditions: 50% inhibition of cyclic AMP-phosphodiesterase activity on 1 micromolar substrate
Protocol: In general, the specific cyclic AMP-phosphodiesterase inhibitors of this invention, (i.e., the above-described cardiotonic agents) when conjunctively administered with prazosin to effect their synergistic activity, are administered at about the threshold dose to exert a blood pressure lowering effect, i.e., the minimum dose it takes to exert a statistically significant lowering of blood pressure. This threshold dose is readily determined by standard laboratory methodology. For example, assays such as the Spontaneously Hypertensive Rat and the Anesthesized Dog for testing blood pressure effects may readily be employed to determine the threshold dose of lowering blood pressure. The threshold dose may also be approximately calculated from an in vitro IC50 value. For this purpose the in vitro IC50 value is the micromolar quantity of compound needed to effect a 50% inhibition of the activity of cyclic AMP-phosphodiesterase on one (1) micromolar quantity of substrate. This IC50 value, when multiplied by the appropriate fraction for intravenous and oral administrations will yield the dosage range, in mg per kg of body weight, necessary to effect its synergism with prazosin.
On the basis of spontaneously hypertensive rat data the multiplying factor is 1/10 to 1 for the intravenous dose and 1 to 10 for the oral dose. […]

Compound	systolic blood pressure change from control at 1 hour ([1]; Table 1, piroximone 25 mg/kg) [mmHg]	systolic blood pressure change from control at 2 hours ([1]; Table 1, piroximone 25 mg/kg) [mmHg]	systolic blood pressure change from control at 3 hours ([1]; Table 1, piroximone 25 mg/kg) [mmHg]	systolic blood pressure change from control at 4 hours ([1]; Table 1, piroximone 25 mg/kg) [mmHg]	IC50 [2] [µM]	systolic blood pressure change from control at 1 hour ([1]; Table 2, amrinone 55 mg/kg) [mmHg]	systolic blood pressure change from control at 2 hours ([1]; Table 2, amrinone 55 mg/kg) [mmHg]	systolic blood pressure change from control at 3 hours ([1]; Table 2, amrinone 55 mg/kg) [mmHg]	systolic blood pressure change from control at 4 hours ([1]; Table 2, amrinone 55 mg/kg) [mmHg]
CCc1[nH]c(=O)[nH]c1C(=O)c1ccncc1 [piroximone]	-23 ± 5	-17 ± 6	-18 ± 7	-20 ± 5	26				
COc1cc2nc(N3CCN(C(=O)c4ccco4)CC3)nc(N)c2cc1OC [prazosin]	-40 ± 4	-40 ± 4	-42 ± 4	-35 ± 5		-32 ± 3	-31 ± 4	-32 ± 4	-31 ± 4
Nc1cc(-c2ccncc2)c[nH]c1=O [amrinone]						-26 ± 6	-23 ± 5	-21 ± 8	-23 ± 7
